# Laboratory results reported in patent US4260599A, “Antifibrotic substance P-1894B” (Takeda Chemical Industries, Ltd., priority 1978, dated 1981).
# Columns and labels:
# pKa by titrimetry = type: physicochemical; conditions: in 66.7% aqueous DMF
# [1] = Body weight of rats in the uterus collagen test; type: in vivo, Sprague-Dawley rats; conditions: 0.3 mg/kg i.p. once daily for 6 days + 17β-estradiol (5 μg); groups of 4 rats
# Method: (§1) Basically in accordance with a procedure described by R. A. Salvador et al [Arch. Biochem. Biophys. 174, 382 (1976)], 0.3 mg/kg was intraperitoneally administered to Sprague-Dawley rats (female, 3 weeks old) once daily for 6 days and the amounts of collagen and non-collagenous proteins in the uteri were compared with the figures for control.
# [2] = target: T1, protocollagen proline hydroxylase (Gallus gallus, UniProt P16924); experiment: Protocollagen proline hydroxylase inhibitor activity; type: biochemical; conditions: partially purified enzyme from chick embryos; substrate (Pro-Pro-Gly)5.4H2O
# T1 construct: partially purified enzyme preparation obtained from chick embryos; from tissue; host or cells: chick embryos
# T1 sequence (P16924 1-516): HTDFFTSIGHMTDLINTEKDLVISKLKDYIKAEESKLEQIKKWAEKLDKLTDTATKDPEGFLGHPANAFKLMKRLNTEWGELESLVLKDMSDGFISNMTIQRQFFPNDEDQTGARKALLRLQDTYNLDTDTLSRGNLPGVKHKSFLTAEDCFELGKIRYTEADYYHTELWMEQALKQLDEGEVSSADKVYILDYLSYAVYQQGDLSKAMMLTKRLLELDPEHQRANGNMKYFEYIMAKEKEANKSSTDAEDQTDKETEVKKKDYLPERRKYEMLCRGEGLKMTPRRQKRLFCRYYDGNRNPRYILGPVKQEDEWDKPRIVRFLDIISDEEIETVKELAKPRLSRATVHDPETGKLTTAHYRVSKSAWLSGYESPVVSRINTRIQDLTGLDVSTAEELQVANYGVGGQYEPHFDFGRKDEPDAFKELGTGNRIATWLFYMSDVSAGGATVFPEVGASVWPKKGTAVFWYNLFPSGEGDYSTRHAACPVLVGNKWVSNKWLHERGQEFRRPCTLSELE
# T1 sequence (P09102 23-515 partner): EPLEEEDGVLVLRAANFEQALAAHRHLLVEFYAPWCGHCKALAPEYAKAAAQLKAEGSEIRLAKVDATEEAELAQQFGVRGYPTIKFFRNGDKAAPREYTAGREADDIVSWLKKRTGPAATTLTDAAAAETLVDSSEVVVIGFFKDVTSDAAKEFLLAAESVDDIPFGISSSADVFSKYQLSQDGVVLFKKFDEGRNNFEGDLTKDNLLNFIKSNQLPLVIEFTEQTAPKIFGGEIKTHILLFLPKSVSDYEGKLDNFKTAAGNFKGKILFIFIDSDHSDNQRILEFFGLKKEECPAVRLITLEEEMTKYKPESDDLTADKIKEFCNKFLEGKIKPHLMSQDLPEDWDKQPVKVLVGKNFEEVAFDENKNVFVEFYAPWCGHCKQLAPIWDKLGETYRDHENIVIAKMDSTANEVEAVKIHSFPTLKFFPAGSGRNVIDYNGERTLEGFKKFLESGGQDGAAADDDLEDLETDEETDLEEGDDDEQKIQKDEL
# [3] = Carbon tetrachloride-induced hepatic cirrhosis: body weight; type: in vivo, Sprague-Dawley rats; conditions: 4 weeks
# Method: (§2) Female Sprangue-Dawley rats weighing approximately 110 g each were divided into 4 groups. Group I (control) received saline (1 ml/rat) and Groups II, III and IV received 10% CCl4 -olive oil mixture (1 ml/rat) intraperitoneally twice weekly for a total 8 doses. Groups III and IV received P-1894B orally with food for 4 weeks. Average doses of P-1894B in Groups III and IV were 3.25 and 6.16 mg/kg/day, respectively. The rats were sacrificed a day after the last injection and the livers were immediately removed for the assays.
# [4] = tested on: protocollagen proline hydroxylase; experiment: Carbon tetrachloride-induced hepatic cirrhosis: protocollagen proline hydroxylase activity in the liver; type: in vivo, Sprague-Dawley rats; conditions: for Protocollagen proline hydroxylase: liver, 4 weeks, CCl4 group 504 ± 87
# Method: as §2
# A 10% homogenate of the liver was prepared in 20 mM Tris-HCl buffer, pH 7.5, containing 0.2 M NaCl, 0.1 M glycine, 5×10^-5 M 1,4-dithiothreitol and 0.1% Triton (polyethylene glycol p-isooctylphenyl ether) X-100 using a Polytron homogenizer. The homogenate was centrifuged at 15,000 g for 20 min and the clear supernatant was assayed for proline hydroxylase activity by the method of Hutton et al [Anal. Biochem. 16, 384-394 (1966)]. The protein content of the homogenate was measured by the method of Lowry et al [J. Biol. Chem. 193, 265-275 (1951)] using bovine serum albumin as the standard.
# [5] = tested on: hydroxyproline content of the liver (collagen biosynthesis); experiment: Carbon tetrachloride-induced hepatic cirrhosis: hydroxyproline content of the liver; type: in vivo, Sprague-Dawley rats; conditions: for Hydroxyproline: liver, 4 weeks, CCl4 group 145.8 ± 18.3
# Method: as §2
# Hydroxyproline content of the liver was measured in 6 N HCl hydrolysate (110° C., 22h) by the method of Blumenkrantz et al [Anal. Biochem. 63, 331-340 (1975)].
# Solubility = type: physicochemical
# [6] = tested on: collagen biosynthesis (uterus); experiment: Collagen biosynthesis inhibiting activity in uteri of 17β-estradiol-treated rats; type: in vivo, Sprague-Dawley rats
# Method: as §1
# [7] = 6.16 mg/kg/day, p.o., compared to livers of CCl4-fibrotic rats
# [8] = CCl4 + P-1894B 3.25 mg/kg/day orally with food
# [9] = CCl4 + P-1894B 6.16 mg/kg/day orally with food, P<0.05 vs CCl4, n=5
# [10] = 0.3 mg/kg i.p. once daily for 6 days + 17β-estradiol (5 μg)
smiles,measurement,setting,value
C[C@@H]1O[C@@H](O[C@H]2CC[C@H](O[C@H]3[C@H](O)C[C@H](c4ccc5c(c4O)C(=O)C4=C(C5=O)[C@@]5(O)C(=O)C[C@](C)(O[C@H]6CC[C@H](O[C@H]7C=CC(=O)[C@H](C)O7)[C@H](C)O6)C[C@@]5(O)C=C4)O[C@@H]3C)O[C@H]2C)C=CC1=O [P-1894B],PKa,pKa by titrimetry,10.15
same,Body weight of rats,[1],72 ± 5 g
same,concentration required for a 50% inhibition of 100 μg (as protein) of partially purified enzyme,[2],about 7 μg/ml
same,"weight, final","[3]; CCl4 + P-1894B 3.25 mg/kg/day orally with food, initial 112 ± 9",199 ± 19 g
same,"weight, final","[3]; CCl4 + P-1894B 6.16 mg/kg/day orally with food, initial 111 ± 5",198 ± 9 g
same,specific activity of protocollagen proline hydroxylase in the liver (in words),[4]; [7],significantly decreased
same,Protocollagen proline hydroxylase,[4]; [8],457 ± 68 dpm/mg of protein
same,Protocollagen proline hydroxylase,[4]; [9],357 ± 15 dpm/mg of protein
same,hydroxyproline content in the liver (in words),[5]; [7],significantly decreased
same,Hydroxyproline,[5]; [8],132.4 ± 29.6 μg/100 mg of protein
same,Hydroxyproline,[5]; [9],122.6 ± 14.0 μg/100 mg of protein
same,Solubility,"Solubility; in chloroform, dioxane, ethyl acetate, dimethylsulfoxide, acetone, methyl ethyl ketone, pyridine, methanol, ethanol, benzene, toluene, diethyl ether and 0.1 N NaOH",Readily soluble or soluble
same,Solubility,"Solubility; in petroleum ether, n-hexane and cyclohexane",sparingly soluble or insoluble
same,inhibition of the biosynthesis of collagen (in words),[6]; 0.3 mg/kg i.p. once daily for 6 days,inhibited the biosynthesis of collagen specifically and significantly
same,"% Inhibition, Collagen",[6]; [10],78%
same,"% Inhibition, Non-collagenous protein",[6]; [10],-21%
same,Non-collagenous protein in uterus,"[6]; 0.3 mg/kg i.p. once daily for 6 days + 17β-estradiol (5 μg), = total protein - collagen, control (2) 24.21 ± 7.21",26.99 ± 4.67 mg
same,Collagen in uterus,"[6]; 0.3 mg/kg i.p. once daily for 6 days + 17β-estradiol (5 μg), groups of 4 rats, control (2) 4.39 ± 0.16, p < 0.01 vs control (2)",3.41 ± 0.22 mg
same,Total protein of uterus,"[6]; 0.3 mg/kg i.p. once daily for 6 days + 17β-estradiol (5 μg), groups of 4 rats, control (2) 28.6 ± 7.3",30.4 ± 5.0 mg
